Data taken from patent US6667333B2, “Herbicidal 3-(4,5 dihydroisoxazole- 3 yl) substituted benzoycyclohexenone derivatives” (BASF Aktiengesellschaft, priority 1999, dated 2003).

Experiments:
Abutilon theophrasti = experiment: greenhouse post-emergence herbicidal test; type: in vivo, Abutilon theophrasti (velvet leaf); conditions: application rates of 0.25 or 0.125 kg/ha, 2 to 4 weeks
Text: (§1) The cultivation containers used were plastic flower pots containing loamy sand with approximately 3.0% of humus as the substrate. The seeds of the test plants were sown separately for each species.
(§2) For the post-emergence treatment, the test plants were first grown to a height of from 3 to 15 cm, depending on the plant habit, and only then treated with the active compounds which had been suspended or emulsified in water. The test plants were for this purpose either sown directly and grown in the same containers, or they were first grown separately as seedlings and transplanted into the test containers a few days prior to treatment. The application rate for the post-emergence treatment was 0.25 or 0.125 kg of a.s. (active substance)/ha.
(§3) Depending on the species, the plants were kept at 10-25° C. or 20-35° C. The test period extended over 2 to 4 weeks. During this time, the plants were tended, and their response to the individual treatments was evaluated.
(§4) The evaluation was carried out using a scale from 0 to 100. 100 means no emergence of the plants, or complete destruction of at least the aerial parts and 0 means no damage, or normal course of growth.
(§5) The plants used in the greenhouse experiments were of the following species: […]

Avena fatua = experiment: greenhouse post-emergence herbicidal test; type: in vivo, Avena fatua (wild oat); conditions: application rates of 0.25 or 0.125 kg/ha, 2 to 4 weeks
Text: as §1, §2, §3, §4, §5

Brachiaria plantaginea = experiment: greenhouse post-emergence herbicidal test; type: in vivo, Brachiaria plantaginea (alexandergrass); conditions: application rates of 0.25 or 0.125 kg/ha, 2 to 4 weeks
Text: as §1, §2, §3, §4, §5

Chenopodium album = experiment: greenhouse post-emergence herbicidal test; type: in vivo, Chenopodium album (lamb's-quarters); conditions: application rates of 0.25 or 0.125 kg/ha, 2 to 4 weeks
Text: as §1, §2, §3, §4, §5

Echinochloa crus galli = experiment: greenhouse post-emergence herbicidal test; type: in vivo, Echinochloa crus galli (barnyardgrass); conditions: application rates of 0.25 or 0.125 kg/ha, 2 to 4 weeks
Text: as §1, §2, §3, §4, §5

Polygonum persicaria = experiment: greenhouse post-emergence herbicidal test; type: in vivo, Polygonum persicaria (lady's-thumb); conditions: application rates of 0.25 or 0.125 kg/ha, 2 to 4 weeks
Text: as §1, §2, §3, §4, §5

Compound | melting point [°C] | other results
Cc1c(C(=O)C2=C(O)CC(C)(C)CC2=O)ccc(S(C)(=O)=O)c1C1=NOC2CC12 (centres unmarked) [Compound 2.1] | 102 | post-emergence action (Abutilon theophrasti): very good; post-emergence action (Avena fatua): very good; post-emergence action (Brachiaria plantaginea): very good; post-emergence action (Chenopodium album): very good; post-emergence action (Echinochloa crus galli): very good; post-emergence action (Polygonum persicaria): very good
CC1(C)CC(=O)C(C(=O)c2ccc(S(C)(=O)=O)c(C3=NOC4CC34)c2Cl)=C(O)C1 (centres unmarked) [Compound 2.7] | 101 to 105 | –
Cc1c(C(=O)C2=C(O)C(C)CC(C)C2=O)ccc(S(C)(=O)=O)c1C1=NOC2CC12 (centres unmarked) [Compound 2.3, 2-[2-Methyl-3-(2-oxa-3-azabicyclo[3.1.0]hex-3-en-4-yl)-4-methylsulfonylbenzoyl]-1-hydroxy-4,6-dimethylcyclohex-1-en-3-one] | 90 to 96 | –
CSC1(C)CCC(=O)C(C(=O)c2ccc(S(C)(=O)=O)c(C3=NOC4CC34)c2C)=C1O (centres unmarked) [Compound 2.5] | 100 to 106 | –

Second part, led by results:

melting point [°C] | Compound | other results
120 to 127 | Cc1c(C(=O)C2=C(O)CC(C)(C)CC2=O)ccc(S(C)(=O)=O)c1C1=NOC2CC12C (centres unmarked) [Compound 2.13] | –
112 to 120 | Cc1c(C(=O)C2=C(O)CC(C)(C)CC2=O)ccc(S(C)(=O)=O)c1C1=NOC2(C)CC12 (centres unmarked) [Compound 2.8] | –
98 to 112 | Cc1c(C(=O)C2=C(O)C(C)CC(C)C2=O)ccc(S(C)(=O)=O)c1C1=NOC2(C)CC12 (centres unmarked) [Compound 2.12] | –
120 to 130 | Cc1c(C(=O)C2=C(O)C(C)(C)CCC2=O)ccc(S(C)(=O)=O)c1C1=NOC2(C)CC12 (centres unmarked) [Compound 2.14] | –
